The structures appear in SMILES notation. “And” between values parts separate entries of the source, which are not always exact repeats. Equal values may be shown once. Inconclusive results and toxic doses are left out.

This test relates to P388 leukemia ip, CD2F1 mice, survival T/C. As to the kind of experiment: NCI In Vivo Anticancer Drug Screen. Data for tumor model P388 Leukemia (intraperitoneal) in CD2F1 (CDF1) mice. Particulars: higher = longer survival. Put shortly: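 Mice carrying the transplanted tumor received test compound or vehicle. Survival was recorded in each group, and the value is the treated-group measurement divided by that of the vehicle-treated control group.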

Where [1] appears, read: endpoint: median survival time, dose: 60.0 mg/kg/injection, schedule: Q01DX005 (ip), vehicle: saline with Tween-80.
Where [2] appears, read: endpoint: median survival time, dose: 120.0 mg/kg/injection, schedule: Q01DX005 (ip), vehicle: saline with Tween-80.
Setting [3] is: endpoint: median survival time, dose: 6.25 mg/kg/injection, schedule: Q01DX009 (ip), vehicle: saline.
Setting [4] is: endpoint: median survival time, dose: 12.5 mg/kg/injection, schedule: Q01DX009 (ip), vehicle: saline.
Where [5] appears, read: endpoint: median survival time, dose: 25.0 mg/kg/injection, schedule: Q01DX009 (ip), vehicle: saline.
The mark [6] stands for this setting: endpoint: median survival time, dose: 100.0 mg/kg/injection, schedule: Q01DX009 (ip), vehicle: saline.
Setting [7] is: endpoint: median survival time, dose: 200.0 mg/kg/injection, schedule: Q01DX009 (ip), vehicle: saline.
Where [8] appears, read: endpoint: median survival time, dose: 240.0 mg/kg/injection, schedule: Q01DX005 (ip), vehicle: saline with Tween-80.
Where [9] appears, read: endpoint: median survival time, dose: 50.0 mg/kg/injection, schedule: Q01DX009 (ip), vehicle: saline.

In the case of `COc1ccc2c(c1OC(C)=O)-c1cc(O)cc3c1C(C2)N(C(=O)CN(CCCl)CCCl)CC3` (centres undefined), the T/C is 116 % of control (endpoint: median survival time, dose: 3.13 mg/kg/injection, schedule: Q04DX003 (ip), vehicle: DMSO); 123 % of control (endpoint: median survival time, dose: 6.25 mg/kg/injection, schedule: Q04DX003 (ip), vehicle: DMSO); 174 % of control (endpoint: median survival time, dose: 12.5 mg/kg/injection, schedule: Q04DX003 (ip), vehicle: DMSO); 168 % of control (endpoint: median survival time, dose: 25.0 mg/kg/injection, schedule: Q04DX003 (ip), vehicle: DMSO); 154 % of control (endpoint: median survival time, dose: 25.0 mg/kg/injection, schedule: Q04DX003 (ip), vehicle: distilled water + Tween-80); 169 % of control (endpoint: median survival time, dose: 50.0 mg/kg/injection, schedule: Q04DX003 (ip), vehicle: DMSO). Also, the T/C (endpoint: median survival time, dose: 50.0 mg/kg/injection, schedule: Q04DX003 (ip), vehicle: saline) is 87 % of control.
On to `O=C(O)CCc1c[nH]c2ccc(N(CCCl)CCCl)cc12`, for which the T/C reads like this: (endpoint: median survival time, dose: 0.08 mg/kg/injection, schedule: Q04DX003 (ip), vehicle: saline with Tween-80) 163 % of control; (endpoint: median survival time, dose: 0.15 mg/kg/injection, schedule: Q04DX003 (ip), vehicle: saline with Tween-80) 100 % of control; (endpoint: median survival time, dose: 0.25 mg/kg/injection, schedule: Q01DX009 (ip), vehicle: saline) 104 % of control; (endpoint: median survival time, dose: 0.33 mg/kg/injection, schedule: Q04DX003 (ip), vehicle: saline with Tween-80) 177 % of control; (endpoint: median survival time, dose: 0.5 mg/kg/injection, schedule: Q04DX003 (ip), vehicle: saline with Tween-80) 177 % of control; (endpoint: median survival time, dose: 0.75 mg/kg/injection, schedule: Q04DX003 (ip), vehicle: saline with Tween-80) 104 % of control.
As for `Nc1nc(N)c(SC(F)(F)F)c(Cl)n1`, the T/C is, setting by setting: under setting [1], 100 % of control; under setting [2], 103 % of control.
`CCc1cccc(CC)c1N1C(=O)COCC1=O`: the T/C was 96 % of control under setting [3]; 93 % of control under setting [4]; 92 % of control under setting [5]; 100 % of control under setting [6]; 100 % of control under setting [7].
Turning to `CC1(C)C(O)C(C)(C)C1O` (centres undefined), the T/C (endpoint: median survival time, dose: 12.5 mg/kg/injection, schedule: Q01DX009 (ip), vehicle: saline with Tween-80) is 100 % of control; the T/C (endpoint: median survival time, dose: 25.0 mg/kg/injection, schedule: Q01DX009 (ip), vehicle: saline with Tween-80) was 100 % of control; the T/C (endpoint: median survival time, dose: 50.0 mg/kg/injection, schedule: Q01DX009 (ip), vehicle: saline with Tween-80) was 100 % of control.
On to `Cc1c2ccccc2c(CSC(=N)N)c2ccccc12`, for which the T/C (endpoint: median survival time, dose: 0.44 mg/kg/injection, schedule: Q01DX009 (ip), vehicle: saline) is 110 % of control; the T/C (endpoint: median survival time, dose: 0.66 mg/kg/injection, schedule: Q01DX009 (ip), vehicle: saline) was 110 % of control; the T/C (endpoint: median survival time, dose: 1.0 mg/kg/injection, schedule: Q01DX009 (ip), vehicle: saline) was 110 % of control; the T/C (endpoint: median survival time, dose: 1.47 mg/kg/injection, schedule: Q01DX009 (ip), vehicle: saline) is 160 % of control; the T/C (endpoint: median survival time, dose: 1.5 mg/kg/injection, schedule: Q01DX009 (ip), vehicle: saline) was 105 % of control and 120 % of control; the T/C (endpoint: median survival time, dose: 2.2 mg/kg/injection, schedule: Q01DX009 (ip), vehicle: saline) was 160 % of control. The T/C is 165 % of control (endpoint: median survival time, dose: 3.3 mg/kg/injection, schedule: Q01DX009 (ip), vehicle: saline); 150 % of control and 185 % of control (endpoint: median survival time, dose: 5.0 mg/kg/injection, schedule: Q01DX009 (ip), vehicle: saline).
Turning to `Cc1c(-c2ccccc2)ccnc1/C=N/NS(=O)(=O)c1ccccc1`, the T/C runs as follows: (endpoint: median survival time, dose: 50.0 mg/kg/injection, schedule: Q01DX009 (ip), vehicle: other) 103 % of control; (endpoint: median survival time, dose: 100.0 mg/kg/injection, schedule: Q01DX009 (ip), vehicle: other) 97 % of control; (endpoint: median survival time, dose: 200.0 mg/kg/injection, schedule: Q01DX009 (ip), vehicle: other) 96 % of control.
As for `COC(=O)C(C)N(CCCl)P1(=O)OCCCN1CCCl` (centres undefined), the T/C runs as follows: under setting [1], 108 % of control; (endpoint: median survival time, dose: 60.0 mg/kg/injection, schedule: Q01DX005 (ip), vehicle: saline) 99 % of control; under setting [2], 124 % of control; under setting [8], 165 % of control; (endpoint: median survival time, dose: 240.0 mg/kg/injection, schedule: Q01DX005 (ip), vehicle: saline) 297 % of control; (endpoint: median survival time, dose: 400.0 mg/kg/injection, schedule: Q01DX005 (ip), vehicle: saline with Tween-80) 252 % of control.
Regarding `CCOC(=O)/C(C#N)=N/O`, the T/C is 104 % of control and 114 % of control and 90 % of control under setting [3]; 102 % of control and 104 % of control and 95 % of control under setting [4]; 111 % of control and 97 % of control under setting [5]; 101 % of control and 104 % of control and 107 % of control under setting [9].
With `CC(C)N1CCC(Oc2ccc3ccccc3n2)C1` (centres undefined), the T/C (endpoint: median survival time, dose: 50.0 mg/kg/injection, schedule: Q01DX009 (ip), vehicle: Klucel (hydroxypropylcellulose) (HPC)) was 100 % of control and the T/C (endpoint: median survival time, dose: 100.0 mg/kg/injection, schedule: Q01DX009 (ip), vehicle: Klucel (hydroxypropylcellulose) (HPC)) is 91 % of control.
`C[N+](c1ccc(Cl)cc1)=S(C)(C)=O`: the T/C under setting [3] was 99 % of control, the T/C under setting [4] is 94 % of control and the T/C under setting [5] was 98 % of control.
`CS(=O)(=O)OCCCN(CCCOS(C)(=O)=O)CCCN1CCOCC1`: the T/C reads like this: (endpoint: mean survival time, dose: 20.0 mg/kg/injection, schedule: Q01DX009 (ip), vehicle: saline) 247 % of control; (endpoint: mean survival time, dose: 40.0 mg/kg/injection, schedule: Q01DX009 (ip), vehicle: saline) 238 % of control; (endpoint: mean survival time, dose: 60.0 mg/kg/injection, schedule: Q01DX009 (ip), vehicle: saline) 263 % of control; (endpoint: median survival time, dose: 20.0 mg/kg/injection, schedule: Q01DX009 (ip), vehicle: saline) 227 % of control; (endpoint: median survival time, dose: 40.0 mg/kg/injection, schedule: Q01DX009 (ip), vehicle: saline) 222 % of control; (endpoint: median survival time, dose: 60.0 mg/kg/injection, schedule: Q01DX009 (ip), vehicle: saline) 254 % of control.
`CC(C)(CCC#N)C1NC(C(=O)O)CS1` (centres undefined): the T/C under setting [9] is 102 % of control, the T/C under setting [6] was 99 % of control and the T/C under setting [7] is 87 % of control.
In the case of `NC(=S)N/N=C1/CCCC/C1=N/O`, the T/C runs as follows: under setting [1], 100 % of control; under setting [2], 100 % of control.
As to `CC(=C\C=N\N(C)c1ccccc1)/C=C1\Cc2ccccc2C1=O`, the T/C reads like this: (endpoint: median survival time, dose: 100.0 mg/kg/injection, schedule: Q04DX003 (ip), vehicle: Klucel (hydroxypropylcellulose) (HPC)) 99 % of control; (endpoint: median survival time, dose: 200.0 mg/kg/injection, schedule: Q04DX003 (ip), vehicle: Klucel (hydroxypropylcellulose) (HPC)) 97 % of control; (endpoint: median survival time, dose: 400.0 mg/kg/injection, schedule: Q04DX003 (ip), vehicle: Klucel (hydroxypropylcellulose) (HPC)) 96 % of control.
Consider `CCC1COC(Nc2cccc3c2CCCC3)=N1` (centres undefined), for which the T/C (endpoint: median survival time, dose: 100.0 mg/kg/injection, schedule: Q01DX001 (ip), vehicle: saline with Tween-80) was 95 % of control and the T/C (endpoint: median survival time, dose: 200.0 mg/kg/injection, schedule: Q01DX001 (ip), vehicle: saline with Tween-80) is 90 % of control.
Regarding `Cc1cc(C)nc(NC(=O)Nc2cc(Cl)ccc2C)c1`, the T/C was 88 % of control (endpoint: median survival time, dose: 60.0 mg/kg/injection, schedule: Q01DX005 (ip), vehicle: Klucel (hydroxypropylcellulose) (HPC)); 86 % of control (endpoint: median survival time, dose: 120.0 mg/kg/injection, schedule: Q01DX005 (ip), vehicle: Klucel (hydroxypropylcellulose) (HPC)); 89 % of control (endpoint: median survival time, dose: 240.0 mg/kg/injection, schedule: Q01DX005 (ip), vehicle: Klucel (hydroxypropylcellulose) (HPC)).
On to `O=C1OC(c2ccc(F)cc2)CC1CN1CCOCC1` (centres undefined), for which the T/C reads like this: under setting [1], 105 % of control; under setting [2], 105 % of control; under setting [8], 99 % of control.
On to `CC(C)c1c(CN(C)C(C)Cc2ccccc2)n(C)n(-c2ccccc2)c1=O` (centres undefined), for which the T/C by setting is: under setting [1], 108 % of control; under setting [2], 105 % of control; under setting [8], 98 % of control.

For the origin of these results see PubChem BioAssay AID330 (DTP/NCI, 2004).
